Experimental findings from patent publication US20250179032A1, “HETEROCYCLIC INHIBITORS OF GLUT9 FOR TREATMENT OF DISEASE” (HORIZON THERAPEUTICS IRELAND DAC, priority 2022, published 2025) are described below.

One assay has as its target T1, H. sapiens SLC2A9 variant 2 (GLUT9B) (Homo sapiens, UniProt Q9NRM0).
T1 sequence (Q9NRM0 1-511 isoform Q9NRM0-2): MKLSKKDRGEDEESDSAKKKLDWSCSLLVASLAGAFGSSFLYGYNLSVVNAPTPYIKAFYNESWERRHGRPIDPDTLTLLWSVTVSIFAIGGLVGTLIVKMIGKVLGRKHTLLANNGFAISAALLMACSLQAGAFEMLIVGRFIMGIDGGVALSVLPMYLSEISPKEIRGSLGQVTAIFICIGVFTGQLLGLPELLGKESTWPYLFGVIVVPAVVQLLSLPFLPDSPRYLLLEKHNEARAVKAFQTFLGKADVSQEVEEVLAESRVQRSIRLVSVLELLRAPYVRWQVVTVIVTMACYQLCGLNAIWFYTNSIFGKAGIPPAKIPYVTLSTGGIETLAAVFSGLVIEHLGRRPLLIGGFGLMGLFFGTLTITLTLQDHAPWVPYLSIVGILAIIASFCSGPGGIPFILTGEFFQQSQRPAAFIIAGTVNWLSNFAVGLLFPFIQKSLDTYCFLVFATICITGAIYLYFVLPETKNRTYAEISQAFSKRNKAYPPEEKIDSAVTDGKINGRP
The assay is described as follows: GLUT9 functional assay: uric acid uptake in HEK293T cells, allantoin formation by MS/MS as proxy of GLUT9B inhibition. The class given is cell-based. The note with it: 15 minute assay; HEK293T cells stably expressing GLUT9B and transiently A. oryzae uricase; uric acid 0.3 mM, 37° C.; read-out: 15 min IC50. The method, boiled down: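 Inhibition of GLUT9B-mediated urate uptake read as reduced allantoin formation, measured by MS/MS against allantoin standards in HEK293T matrix with log-logistic fitting. Stable GLUT9B HEK293T cells carrying transfected A. oryzae uricase were incubated 15 or 60 min at 37° C with uric acid at Km (0.3 mM), pH 7.4 gluconate buffer.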
`COCCCc1cnc(-c2cc(C(F)(F)F)c3occc3c2)c(N2CCC(C(=O)O)CC2)n1` [Compound 237, 1-(6-(3-methoxypropyl)-3-(7-(trifluoromethyl)benzofuran-5-yl)pyrazin-2-yl)piperidine-4-carboxylic acid]: the IC50 is greater than 2000 nM.

Still in this assay, the particulars now being: 60 minute assay; HEK293T cells stably expressing GLUT9B and transiently A. oryzae uricase; uric acid 0.3 mM, 37° C.; read-out: 60 min IC50.
Take `COCCCc1cnc(-c2cnn3c2CCCC3)c(N2CCC(C(=O)O)CC2)n1` [Compound 206, 1-(6-(3-methoxypropyl)-3-(4,5,6,7-tetrahydropyrazolo[1,5-a]pyridin-3-yl)pyrazin-2-yl)piperidine-4-carboxylic acid]: the IC50 is greater than 2000 nM.

With `COCCCc1cnc(-c2ccc3cncn3c2)c(N2CCC(C(=O)O)CC2)n1` [Compound 207, 1-(3-(imidazo[1,5-a]pyridin-6-yl)-6-(3-methoxypropyl)pyrazin-2-yl)piperidine-4-carboxylic acid], the IC50 is greater than 2000 nM.

Turning to `COCCCc1cnc(-c2ccn3ccnc3c2)c(N2CCC(C(=O)O)CC2)n1` [Compound 208, 1-(3-(imidazo[1,2-a]pyridin-7-yl)-6-(3-methoxypropyl)pyrazin-2-yl)piperidine-4-carboxylic acid], the IC50 is greater than 2000 nM.

As to `COCCCc1cnc(-c2cnn3c2OCCC3)c(N2CCC(C(=O)O)CC2)n1` [Compound 209, 1-(3-(6,7-dihydro-5H-pyrazolo[5,1-b][1,3]oxazin-3-yl)-6-(3-methoxypropyl)pyrazin-2-yl)piperidine-4-carboxylic acid], the IC50 was greater than 2000 nM.

As for `COCCCc1cnc(-c2cnc3sccc3c2)c(N2CCC(C(=O)O)CC2)n1` [Compound 210, 1-(6-(3-methoxypropyl)-3-(thieno[2,3-b]pyridin-5-yl)pyrazin-2-yl)piperidine-4-carboxylic acid], the IC50 lay within 500 to 2000 nM.

As for `COCCCc1cnc(-c2ccc3nccn3n2)c(N2CCC(C(=O)O)CC2)n1` [Compound 211, 1-(3-(imidazo[1,2-b]pyridazin-6-yl)-6-(3-methoxypropyl)pyrazin-2-yl)piperidine-4-carboxylic acid], the 50% inhibitory concentration (IC50) is greater than 2000 nM.

Take `COCCCc1cnc(-c2ccn3ncnc3c2)c(N2CCC(C(=O)O)CC2)n1` [Compound 212, 1-(3-([1,2,4]triazolo[1,5-a]pyridin-7-yl)-6-(3-methoxypropyl)pyrazin-2-yl)piperidine-4-carboxylic acid]: the IC50 is greater than 2000 nM.

For the compound `COCCCc1cnc(-c2cccc3cn(C)nc23)c(N2CCC(C(=O)O)CC2)n1` [Compound 213, 1-(6-(3-methoxypropyl)-3-(2-methyl-2H-indazol-7-yl)pyrazin-2-yl)piperidine-4-carboxylic acid], the IC50 is greater than 2000 nM.

Take `COCCCc1cnc(-c2ccnc3c2ccn3C)c(N2CCC(C(=O)O)CC2)n1` [Compound 214, 1-(6-(3-methoxypropyl)-3-(1-methyl-1H-pyrrolo[2,3-b]pyridin-4-yl)pyrazin-2-yl)piperidine-4-carboxylic acid]: the IC50 was greater than 2000 nM.

`COCCCc1cnc(-c2cccc3nn(C)cc23)c(N2CCC(C(=O)O)CC2)n1` [Compound 215, 1-(6-(3-methoxypropyl)-3-(2-methyl-2H-indazol-4-yl)pyrazin-2-yl)piperidine-4-carboxylic acid]: the IC50 was greater than 2000 nM.

As to `COCCCc1cnc(-c2cnc3c(c2)NCCO3)c(N2CCC(C(=O)O)CC2)n1` [Compound 216, 1-(3-(2,3-dihydro-1H-pyrido[2,3-b][1,4]oxazin-7-yl)-6-(3-methoxypropyl)pyrazin-2-yl)piperidine-4-carboxylic acid], the IC50 is greater than 2000 nM.

Consider `COCCCc1cnc(-c2cnc3c(cnn3C)c2)c(N2CCC(C(=O)O)CC2)n1` [Compound 217, 1-(6-(3-methoxypropyl)-3-(1-methyl-1H-pyrazolo[3,4-b]pyridin-5-yl)pyrazin-2-yl)piperidine-4-carboxylic acid], for which the IC50 is greater than 2000 nM.

Take `COCCCc1cnc(-c2cnc3nn(C)cc3c2)c(N2CCC(C(=O)O)CC2)n1` [Compound 218, 1-(6-(3-methoxypropyl)-3-(2-methyl-2H-pyrazolo[3,4-b]pyridin-5-yl)pyrazin-2-yl)piperidine-4-carboxylic acid]: the IC50 was greater than 2000 nM.

With `COCCCc1cnc(-c2cnc3c(c2)ncn3C)c(N2CCC(C(=O)O)CC2)n1` [Compound 219, 1-(6-(3-methoxypropyl)-3-(3-methyl-3H-imidazo[4,5-b]pyridin-6-yl)pyrazin-2-yl)piperidine-4-carboxylic acid], the IC50 was greater than 2000 nM.

For the compound `COCCCc1cnc(-c2ccnc3cc(OC)ccc23)c(N2CCC(C(=O)O)CC2)n1` [Compound 221, 1-(6-(3-methoxypropyl)-3-(7-methoxyquinolin-4-yl)pyrazin-2-yl)piperidine-4-carboxylic acid], the IC50 is greater than 2000 nM.

On to `COCCCc1cnc(-c2ccnc3cc(F)c(OC)cc23)c(N2CCC(C(=O)O)CC2)n1` [Compound 222, 1-(3-(7-fluoro-6-methoxyquinolin-4-yl)-6-(3-methoxypropyl)pyrazin-2-yl)piperidine-4-carboxylic acid], for which the 50% inhibitory concentration (IC50) is greater than 2000 nM.

On to `COCCCc1cnc(-c2cc3ccoc3c(F)c2F)c(N2CCC(C(=O)O)CC2)n1` [Compound 223, 1-(3-(6,7-difluorobenzofuran-5-yl)-6-(3-methoxypropyl)pyrazin-2-yl)piperidine-4-carboxylic acid], for which the IC50 was less than 500 nM.

As for `COCCCc1cnc(-c2cc(Cl)c3occc3c2)c(N2CCC(C(=O)O)CC2)n1` [Compound 224, 1-(3-(7-chlorobenzofuran-5-yl)-6-(3-methoxypropyl)pyrazin-2-yl)piperidine-4-carboxylic acid], the IC50 is less than 500 nM.

Regarding `COCCCc1cnc(-c2cc(F)c3sccc3c2)c(N2CCC(C(=O)O)CC2)n1` [Compound 225, 1-(3-(7-fluorobenzo[b]thiophen-5-yl)-6-(3-methoxypropyl)pyrazin-2-yl)piperidine-4-carboxylic acid], the IC50 is less than 500 nM.

Take `COCCCc1cnc(-c2ccc3sccc3c2)c(N2CCC(C(=O)O)CC2)n1` [Compound 226, 1-(3-(benzo[b]thiophen-5-yl)-6-(3-methoxypropyl)pyrazin-2-yl)piperidine-4-carboxylic acid]: the IC50 was less than 500 nM.

For the compound `COCCCCc1cnc(-c2cc(F)c3occc3c2)c(N2CCC(C(=O)O)CC2)n1` [Compound 227, 1-(3-(7-fluorobenzofuran-5-yl)-6-(4-methoxybutyl)pyrazin-2-yl)piperidine-4-carboxylic acid], the IC50 is less than 500 nM.

Consider `COCCCCCc1cnc(-c2cc(F)c3occc3c2)c(N2CCC(C(=O)O)CC2)n1` [Compound 228, 1-(3-(7-fluorobenzofuran-5-yl)-6-(5-methoxypentyl)pyrazin-2-yl)piperidine-4-carboxylic acid], for which the IC50 is less than 500 nM.

Turning to `COCCCc1cnc(-c2ccc(S(C)(=O)=O)cc2)c(N2CCC(C(=O)O)CC2)n1` [Compound 230, 1-(6-(3-methoxypropyl)-3-(4-(methylsulfonyl)phenyl)pyrazin-2-yl)piperidine-4-carboxylic acid], the IC50 is less than 500 nM.

`COCCCc1cnc(-c2ccc3c(c2)COC3=O)c(N2CCC(C(=O)O)CC2)c1` [Compound 232, 1-(5-(3-methoxypropyl)-2-(1-oxo-1,3-dihydroisobenzofuran-5-yl)pyridin-3-yl)piperidine-4-carboxylic acid]: the IC50 was less than 500 nM.

On to `COCCCc1cnc(-c2ccc3c(c2)CCS3(=O)=O)c(N2CCC(C(=O)O)CC2)n1` [Compound 233, 1-(3-(1,1-dioxido-2,3-dihydrobenzo[b]thiophen-5-yl)-6-(3-methoxypropyl)pyrazin-2-yl)piperidine-4-carboxylic acid], for which the IC50 is greater than 2000 nM.

On to `COCCCc1cnc(-c2ccc3c(c2)CCCS3(=O)=O)c(N2CCC(C(=O)O)CC2)n1` [Compound 234, 1-(3-(1,1-dioxidothiochroman-6-yl)-6-(3-methoxypropyl)pyrazin-2-yl)piperidine-4-carboxylic acid], for which the IC50 is greater than 2000 nM.

Consider `COCCCc1cnc(-c2cc(OC(F)(F)F)c3occc3c2)c(N2CCC(C(=O)O)CC2)n1` [Compound 238, 1-(6-(3-methoxypropyl)-3-(7-(trifluoromethoxy)benzofuran-5-yl)pyrazin-2-yl)piperidine-4-carboxylic acid], for which the IC50 lay within 500 to 2000 nM.

`COCCCc1cnc(-c2cc(C)c3occc3c2)c(N2CCC(C(=O)O)CC2)n1` [Compound 239, 1-(6-(3-methoxypropyl)-3-(7-methylbenzofuran-5-yl)pyrazin-2-yl)piperidine-4-carboxylic acid]: the IC50 is less than 500 nM.

For `COCCCc1cnc(-c2cc(C(F)F)c3occc3c2)c(N2CCC(C(=O)O)CC2)n1` [Compound 240, 1-(3-(7-(difluoromethyl)benzofuran-5-yl)-6-(3-methoxypropyl)pyrazin-2-yl)piperidine-4-carboxylic acid], the half-maximal inhibitory concentration (IC50) was less than 500 nM.

As to `COCCCc1cnc(-c2ccc3occc3n2)c(N2CCC(C(=O)O)CC2)n1` [Compound 241, 1-(3-(furo[3,2-b]pyridin-5-yl)-6-(3-methoxypropyl)pyrazin-2-yl)piperidine-4-carboxylic acid], the IC50 was greater than 2000 nM.

The term IC50 denotes the concentration that gives 50% inhibition.
